According to publication PMC10652874, “Investigation into the mechanism of action of the antimicrobial peptide epilancin 15X” (Frontiers in Microbiology, 2023):

Experiments:
S. carnosus TM300 [1] = assay: Killing kinetics (CFU counting); assay type: cell-based, Staphylococcus carnosus; details: S. carnosus TM300, mid-log, 1x and 4x MIC, 30-180 min, triplicate
Protocol: S. carnosus TM300 and B. subtilis BSF2470 (1A980) cell cultures were grown to mid-log phase in BHI and LB broth, respectively. […] At each time point, an aliquot of […] treated-culture was serial-diluted and placed on BHI agar plates for S. carnosus and LB agar plates for B. subtilis. The plates were grown for 1 day at 37°C and the colonies were counted. Each experiment was performed in triplicate and untreated cell culture was used as the negative control.

[2] = Liposome leakage assay using flow cytometry (HaloTag / AF488 ligand); assay type: biochemical; details: 1 μM peptide, 37°C, 1 h
S. carnosus TM300 [3] = assay: Bright field (Airyscan) microscopy; assay type: cell-based, Staphylococcus carnosus; details: S. carnosus TM300, 0.5 MIC
S. carnosus TM300 [4] = assay: Membrane permeability study with propidium iodide (flow cytometry); assay type: cell-based, Staphylococcus carnosus; details: S. carnosus TM300, 20 min exposure, 0.5x, 1x, 4x MIC, n = 3
Protocol: (§1) Cultures of S. carnosus TM300 and B. subtilis BSF2470 were grown to OD600 1.0 and diluted to OD600 0.1 in fresh BHI or LB medium, respectively. The culture was then combined with a final concentration of 25 μM PI (ThermoFisher P3566), 1 mM HEPES, and 1 mM glucose. […] Another two tubes were prepared without antibiotic treatment as controls. The culture was analyzed with a BD Biosciences LSR II flow cytometer for S. carnosus and a BD Biosciences LSRFortessa for B. subtilis using excitation at 488 nm with an argon laser and measurement of emission through a band-pass filter at 695/40 nm. A minimum of 30,000 events were detected for each sample. The experiment was repeated three times, and the mean PI uptake value was determined. The results were calibrated such that the mean PI uptake from the 4x MIC nisin-treated cell culture was set as 100% PI uptake.

S. carnosus TM300 [5] = assay: MIC determination in 96-well microtiter plate; assay type: cell-based, Staphylococcus carnosus; details: BHI, 37°C, 10^5 CFU/mL, OD600 after 18 h
Protocol: (§2) MIC determination was performed in a 96-well microtiter plate as described previously ([Wu et al., 2019]). Sensitive bacterial culture was grown in the appropriate medium (BHI for S. carnosus; LB for B. subtilis) at 37°C overnight. The culture was diluted to 10^5 CFU/mL in medium in each well. Epilancin 15X or its analog was dissolved in water and serially diluted to obtain final concentrations of 20, 10, 5, 2.5, 1.25, 0.625, 0.3125, 0.156, 0.078, 0.039, 0.019, and 0.009 μM. OD600 readings were obtained after 18 h using a Synergy H4 Hybrid Multi-Mode Microplate Reader (BioTeK). Cell-free untreated medium, and untreated cell culture were used as negative controls. The MIC of nisin against B. subtilis BSF2470 was determined following the same methods.

B. subtilis BSF2470 = assay: Membrane permeability study with propidium iodide (flow cytometry); assay type: cell-based, Bacillus subtilis; details: B. subtilis BSF2470, 20 min exposure, 0.5x, 1x, 4x MIC, n = 3
Protocol: as §1

[6] = tested on: fatty acid biosynthesis in S. carnosus TM300; assay type: cell-based, Staphylococcus carnosus; details: S. carnosus TM300, 2× MIC, normalized to OD600, three independent experiments
Protocol: Radiolabel incorporation experiments were carried out similarly as previously described but using S. carnosus ([Wu et al., 2019]). The OD600 of parallel nonradioactive cultures was measured at each time point to normalize the measured radioactivity and minimize effects due to cell death and growth inhibition. The radiolabeled reagents and their corresponding positive and negative antibiotic controls were as follows. […] All experiments were conducted independently three times.
Thre e in de pen den t ex perime nts of incorporation of (A) 14C- acetic acid into fatty acids, (B) 14C- thymi din e into D NA, (C) 3H-uridi ne into RNA, (D) 14C- lab el ed ami no acids into protei n, and (E) 14C- label ed GlcNAc into cell w all in S. carnosus TM300 cells treated with vario u s antimicro bia l agents. T he p ercent i nco rpo ratio n at 0 min was measured after incubati ng the cel l cultur e with 0.8 μCi/mL radioactive precursors for 15 min. […] Positive controls a re gr een and negative controls are black (cells o nly) an d blu e (co mpo und w ith mo d e o f actio n unr elate d to th e a ssay i n que stio n). T he ra dio activity o f each a nti bio tic - treated cultur e was normalized based on it s OD600 at each time point compared to th e unt reate d ce ll cultur e.

[7] = tested on: B. subtilis BSF2470 (1A980); assay: MIC determination in 96-well microtiter plate; assay type: cell-based, Bacillus subtilis; details: LB, 37°C, 10^5 CFU/mL, OD600 after 18 h
Protocol: as §2

B. subtilis 168 = assay: MIC determination in 96-well microtiter plate; assay type: cell-based, Bacillus subtilis; details: LB, 37°C, 10^5 CFU/mL, OD600 after 18 h
Protocol: as §2

B. subtilis ATCC 6633 = assay: MIC determination in 96-well microtiter plate; assay type: cell-based, Bacillus subtilis; details: LB, 37°C, 10^5 CFU/mL, OD600 after 18 h
Protocol: as §2

[8] = tested on: LiaRS response in B. subtilis BSF2470; assay: LiaRS disk diffusion reporter assay (β-galactosidase, X-Gal); assay type: cell-based, Bacillus subtilis; details: 37°C overnight
Protocol: The LiaRS response was determined via disk diffusion as described previously ([Mascher et al., 2004]). Briefly, B. subtilis strain BSF2470 was grown in LB supplemented with erythromycin (1 μg/mL) overnight at 37°C with shaking. A total of 20 μL of overnight culture was mixed with 100 μL of 20 mg/mL X-Gal (dissolved in DMF) and 5 mL of 0.7% soft LB agar then poured onto a 1.5% LB agar base. The plates were allowed to cool and dry at room temperature for 20 min. The desired molecule was either spotted on a filter paper disk and placed on top of the agar or directly spotted on the agar. The following molecules were tested: ampicillin, 0.5 μL on filter disk, 1 μL directly spotted, 100 mg/mL; compound 1771/LtaS-IN-1, 4 μL, 20 mM (dissolved in DMSO); epilancin 15X, 4 μL, 5 mM; vancomycin, 1 μL, 100 mg/mL; nisin, 4 μL, 2 mM; bacitracin, 4 μL on filter disk, 5 μL directly spotted, 100 mg/mL; water, 5 μL; magainin 2, 10 μL, 1 mM; melittin, 10 μL, 1 mM. The plate was incubated at 37°C overnight. After overnight incubation, the plate was imaged. Compound 1771 (CS-0114233) was purchased from ChemScene LLC.
To investigate the effect of epilancin 15X on the cell envelope, we employed the two-component LiaRS reporter system in B. subtilis (lipid II cycle interfering antibiotic response regulator and sensor; [Mascher et al., 2004]). Briefly, the LiaRS assay is a disk diffusion assay used to screen for the ability of compounds to induce β-galactosidase expression in engineered B. subtilis BSF2470 ([Mascher et al., 2004]). Molecules that produce a blue ring around the edge of the zone of growth inhibition are believed to interfere with the lipid II cycle ([Hachmann et al., 2009]). […] The compound 1771, also called LtaS-IN-1, inhibits lipoteichoic acid (LTA) synthesis ([Richter et al., 2013]) and to the best of our knowledge has not been tested in the LiaRS assay.

Substance: Epilancin 15X
- number of colony forming units (CFU) (S. carnosus TM300 [1]): significant decrease
- fluorescence signal (pore formation) ([2]; POPC-cholesterol liposomes with 0.1% lipid II): did not induce pore formation
- fluorescence signal (pore formation) compared to buffer control ([2]; POPC-cholesterol liposomes without lipid II): no increase in fluorescence signal
- aggregation phenotype of cells (brightfield) (S. carnosus TM300 [3]): Aggregation and chaining of cells was observed
- PI uptake (membrane disruption) (S. carnosus TM300 [4]): increase
- MIC (S. carnosus TM300 [5]): 0.16 µM
- PI uptake (membrane disruption) (B. subtilis BSF2470): increase
- fatty acid biosynthesis (14C-acetic acid incorporation) [6]: decrease
- MIC [7]: 2.5 µM
- MIC (B. subtilis 168): 4.00 µM
- MIC (B. subtilis ATCC 6633): 1.25 µM
- LiaRS response (blue ring at the edge of the zone of inhibition) [8]: did not induce a LiaRS response
